Experimental data reported in PubChem BioAssay AID256 (DTP/NCI, 2004).
Where “and” joins values, the source holds several entries; their conditions need not be identical. Equal entries are not always repeated. Toxic doses and inconclusive results are not listed. How the source made its calls: active means survival T/C of 150% or more; inactive means T/C below 125% in these data.

System: CD2F1 mice, L1210 leukemia ip, survival T/C
Assay: NCI In Vivo Anticancer Drug Screen. Data for tumor model L1210 Leukemia (intraperitoneal) in CD2F1 (CDF1) mice
Conditions: endpoint: mean survival time, higher = longer survival
Procedure, shortened: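 Transplantable tumor in mice; compound-treated vs vehicle-treated groups. Read-out = treated/control ratio of the measured endpoint.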

[1] = dose: 12.5 mg/kg/injection, schedule: Q01DX009 (ip), vehicle: saline
[2] = dose: 25.0 mg/kg/injection, schedule: Q01DX009 (ip), vehicle: saline
[3] = dose: 100.0 mg/kg/injection, schedule: Q01DX009 (ip), vehicle: saline
[4] = dose: 200.0 mg/kg/injection, schedule: Q01DX009 (ip), vehicle: saline
[5] = dose: 100.0 mg/kg/injection, schedule: Q04DX003 (ip), vehicle: saline
[6] = dose: 200.0 mg/kg/injection, schedule: Q04DX003 (ip), vehicle: saline
[7] = dose: 400.0 mg/kg/injection, schedule: Q04DX003 (ip), vehicle: saline
[8] = dose: 100.0 mg/kg/injection, schedule: Q04DX003 (ip), vehicle: saline with Tween-80
[9] = dose: 200.0 mg/kg/injection, schedule: Q04DX003 (ip), vehicle: saline with Tween-80
[10] = dose: 400.0 mg/kg/injection, schedule: Q04DX003 (ip), vehicle: saline with Tween-80
[11] = dose: 12.5 mg/kg/injection, schedule: Q01DX009 (ip), vehicle: saline with Tween-80
[12] = dose: 25.0 mg/kg/injection, schedule: Q01DX009 (ip), vehicle: saline with Tween-80
[13] = dose: 50.0 mg/kg/injection, schedule: Q01DX009 (ip), vehicle: saline with Tween-80
[14] = dose: 100.0 mg/kg/injection, schedule: Q01DX009 (ip), vehicle: saline with Tween-80
[15] = dose: 200.0 mg/kg/injection, schedule: Q01DX009 (ip), vehicle: saline with Tween-80
[16] = dose: 25.0 mg/kg/injection, schedule: Q01DX005 (ip), vehicle: water
[17] = dose: 50.0 mg/kg/injection, schedule: Q01DX005 (ip), vehicle: water
[18] = dose: 100.0 mg/kg/injection, schedule: Q01DX005 (ip), vehicle: water
[19] = dose: 400.0 mg/kg/injection, schedule: Q01DX009 (ip), vehicle: saline with Tween-80
[20] = dose: 25.0 mg/kg/injection, schedule: Q01DX009 (ip), vehicle: water
[21] = dose: 50.0 mg/kg/injection, schedule: Q01DX009 (ip), vehicle: water
[22] = dose: 100.0 mg/kg/injection, schedule: Q01DX009 (ip), vehicle: water
[23] = dose: 200.0 mg/kg/injection, schedule: Q01DX009 (ip), vehicle: water

Measured: T/C

Cc1cc(SCC(=O)c2ccc(Br)cc2)cc(C)[o+]1
inactive: dose: 6.25 mg/kg/injection, schedule: Q01DX009 (ip), vehicle: saline 96 % of control and 104 % of control | [1] 102 % of control and 108 % of control | [2] 96 % of control and 108 % of control | dose: 50.0 mg/kg/injection, schedule: Q01DX009 (ip), vehicle: saline 92 % of control and 96 % of control | [3] 102 % of control | [4] 86 % of control

Cc1ccc(S(=O)(=O)OC2CNP(=O)(N(CCCl)CCCl)OC2)cc1 (stereo not drawn)
inactive: dose: 25.0 mg/kg/injection, schedule: Q01DX001 (ip), vehicle: DMSO 96 % of control | dose: 50.0 mg/kg/injection, schedule: Q01DX001 (ip), vehicle: DMSO 100 % of control | dose: 100.0 mg/kg/injection, schedule: Q01DX001 (ip), vehicle: DMSO 94 % of control | dose: 200.0 mg/kg/injection, schedule: Q01DX001 (ip), vehicle: DMSO 100 % of control | dose: 400.0 mg/kg/injection, schedule: Q01DX001 (ip), vehicle: DMSO 98 % of control | dose: 800.0 mg/kg/injection, schedule: Q01DX001 (ip), vehicle: DMSO 91 % of control

CC(C)(C)C(C)(O)CN (stereo not drawn)
inactive: [5] 95 % of control | [6] 101 % of control | [7] 92 % of control

c1ccc(NN=C(c2ccccc2)c2ccccc2)cc1
inactive: [8] 95 % of control | [9] 95 % of control | [10] 98 % of control

Clc1cc(Cl)c(C[N+]23CN4CN(CN(C4)C2)C3)cc1Cl
inactive: [11] 104 % of control | [12] 98 % of control | [13] 92 % of control and 109 % of control | [14] 104 % of control and 112 % of control | [8] 106 % of control | [15] 108 % of control | [9] 104 % of control

Cn1c(=O)c2c(nc(Cl)n2Cc2ccccc2)n(C)c1=O
inactive: dose: 12.5 mg/kg/injection, schedule: Q01DX005 (ip), vehicle: saline with Tween-80 93 % of control | dose: 25.0 mg/kg/injection, schedule: Q01DX005 (ip), vehicle: saline with Tween-80 88 % of control | dose: 50.0 mg/kg/injection, schedule: Q01DX005 (ip), vehicle: saline with Tween-80 87 % of control | dose: 100.0 mg/kg/injection, schedule: Q01DX005 (ip), vehicle: saline with Tween-80 93 % of control

C=CC1(O)CC2CCC1C2 (stereo not drawn)
inactive: [8] 106 % of control | [9] 93 % of control | [10] 101 % of control

Oc1ccccc1C1=CCCCCC1
inactive: [5] 95 % of control | [6] 101 % of control | [7] 104 % of control

COc1cccc(CN2CCCNCC2)c1
inactive: [16] 96 % of control | [17] 96 % of control | [18] 94 % of control

C=C(C)Cc1cc(C(CC)C(CC)c2ccc(O)c(CC(=C)C)c2)ccc1O (stereo not drawn)
inactive: [14] 100 % of control | [5] 96 % of control | [15] 98 % of control | [6] 93 % of control | [19] 100 % of control | [7] 89 % of control

COC(=O)C1C2CCC(C2)C1C(=O)O (stereo not drawn)
inactive: [3] 96 % of control | [4] 96 % of control | dose: 400.0 mg/kg/injection, schedule: Q01DX009 (ip), vehicle: saline 94 % of control

C=CCOCC(O)C[As](=O)(O)c1cccc(Cl)c1 (stereo not drawn)
inactive: dose: 6.25 mg/kg/injection, schedule: Q04DX003 (ip), vehicle: saline with Tween-80 103 % of control | dose: 12.5 mg/kg/injection, schedule: Q04DX003 (ip), vehicle: saline with Tween-80 119 % of control

OC1CC2C3C4C1C1C2C3C41 (stereo not drawn)
inactive: [14] 104 % of control | [8] 107 % of control | [15] 95 % of control | [9] 98 % of control | [19] 95 % of control | [10] 97 % of control

CC1=CCC2(C)CCC(C(C)C)C2(O)CC1 (stereo not drawn)
inactive: [5] 101 % of control | [6] 93 % of control | [7] 102 % of control

CC(=O)C(C(C)=O)C(c1cccnc1)C(C(C)=O)C(C)=O
inactive: dose: 100.0 mg/kg/injection, schedule: Q01DX001 (ip), vehicle: saline with Tween-80 104 % of control | dose: 200.0 mg/kg/injection, schedule: Q01DX001 (ip), vehicle: saline with Tween-80 107 % of control | dose: 400.0 mg/kg/injection, schedule: Q01DX001 (ip), vehicle: saline with Tween-80 98 % of control

c1cc(Oc2ccc3ccncc3c2)c2ccncc2c1
inactive: [8] 95 % of control | [9] 100 % of control | [10] 101 % of control

CC(=O)CCc1ccc(O)cc1
inactive: [14] 94 % of control | [8] 97 % of control | [15] 93 % of control | [9] 92 % of control | [19] 94 % of control | [10] 92 % of control

CC(C)C(=O)C(C)(C)c1nc2ccccc2[nH]1
inactive: dose: 100.0 mg/kg/injection, schedule: Q04DX002 (ip), vehicle: saline with Tween-80 106 % of control | dose: 200.0 mg/kg/injection, schedule: Q04DX002 (ip), vehicle: saline with Tween-80 98 % of control | dose: 400.0 mg/kg/injection, schedule: Q04DX002 (ip), vehicle: saline with Tween-80 87 % of control

CCCCCCn1ncc(=O)[nH]c1=O
inactive: [1] 101 % of control and 102 % of control (2×) | [2] 93 % of control and 98 % of control and 101 % of control | [4] 96 % of control

Cc1cnccc1Br
inactive: [20] 96 % of control | [21] 96 % of control | [22] 86 % of control | [23] 90 % of control

O=S(=O)(c1cc(Cl)ccc1O)c1cc(Cl)ccc1O
inactive: dose: 100.0 mg/kg/injection, schedule: Q01DX001 (ip), vehicle: saline 103 % of control | dose: 200.0 mg/kg/injection, schedule: Q01DX001 (ip), vehicle: saline 100 % of control | dose: 400.0 mg/kg/injection, schedule: Q01DX001 (ip), vehicle: saline 100 % of control

C[C@@H](C[P+](c1ccccc1)(c1ccccc1)c1ccccc1)[C@](OC(=O)c1ccccc1)(C(=O)c1ccccc1)c1ccccc1
inactive: dose: 6.25 mg/kg/injection, schedule: Q01DX001 (ip), vehicle: saline with Tween-80 100 % of control | dose: 12.5 mg/kg/injection, schedule: Q01DX001 (ip), vehicle: saline with Tween-80 105 % of control | dose: 25.0 mg/kg/injection, schedule: Q01DX001 (ip), vehicle: saline with Tween-80 109 % of control

Nc1nc(N)nc(-c2ccccc2)n1
inactive: [8] 96 % of control | [9] 98 % of control | [10] 105 % of control

CN(C)CCN(C)CCN(C)CCN(C)C
inactive: [5] 95 % of control | [6] 97 % of control | [7] 108 % of control

CCCCOC1CCC(O)C2CCCCC12 (stereo not drawn)
inactive: [8] 105 % of control | [9] 96 % of control | [10] 104 % of control

COc1ccc(OC)c2c1CC(C(C)=O)CC2=O (stereo not drawn)
inactive: dose: 12.5 mg/kg/injection, schedule: Q01DX009 (ip), vehicle: water 98 % of control | [20] 102 % of control | [21] 106 % of control | [22] 100 % of control | [23] 92 % of control

ClC(Cl)(Cl)C1=NCc2nnn(Cc3ccccc3)c2N1
inactive: [11] 100 % of control | [12] 92 % of control | [13] 105 % of control | [14] 100 % of control | [15] 107 % of control | [19] 94 % of control

CN(C)S(=O)(=O)CC(O)(c1ccccc1)c1ccccc1
inactive: [8] 103 % of control | [9] 103 % of control | [10] 110 % of control

CCN(C(=O)c1ccc(C(=O)N(CC)c2ccccc2)cc1)c1ccccc1
inactive: [14] 95 % of control | [15] 101 % of control | [19] 90 % of control

Nc1ncnc2c1c1c(=O)[nH]c(=S)[nH]c1n2C1OC(CO)C(O)C1O (stereo not drawn)
inactive: [16] 94 % of control | [17] 100 % of control | [18] 103 % of control | dose: 200.0 mg/kg/injection, schedule: Q01DX005 (ip), vehicle: water 105 % of control | dose: 400.0 mg/kg/injection, schedule: Q01DX005 (ip), vehicle: water 114 % of control

N#CCCCN1C(=O)c2ccccc2C1=O
inactive: dose: 50.0 mg/kg/injection, schedule: Q01DX009 (ip), vehicle: Klucel (hydroxypropylcellulose) (HPC) 99 % of control | dose: 100.0 mg/kg/injection, schedule: Q01DX009 (ip), vehicle: Klucel (hydroxypropylcellulose) (HPC) 97 % of control | dose: 200.0 mg/kg/injection, schedule: Q01DX009 (ip), vehicle: Klucel (hydroxypropylcellulose) (HPC) 99 % of control

O=C(/C=C/c1ccccc1)N1CCOCC1
inactive: dose: 50.0 mg/kg/injection, schedule: Q04DX003 (ip), vehicle: saline 102 % of control | [5] 96 % of control | [6] 100 % of control
